Measured values taken from ChEMBL document CHEMBL1130496, “Synthesis of N-desmethyl PNQX: elaboration into an immunogenic conjugate and a radioiodinated ligand; radioimmunoassay for the AMPA/NMDA antagonist, PNQX” (Bioorg Med Chem Lett, 1997).

Experiments:
[1] = molecular target: Glutamate receptor 4 (Homo sapiens) (UniProt P48058); assay: Effective dose required for the action of AMPA receptor antagonistic activity in maximal electroshock anticonvulsant assay; format: functional
[2] = molecular target: Glutamate receptor ionotropic, NMDA 2C (Rattus norvegicus) (UniProt Q00961); assay: Effective dose required for the action of NMDA receptor activity in maximal electroshock anticonvulsant assay; format: functional
Glutamate receptor ionotropic, NMDA 2C (Rattus norvegicus), sequence (Q00961 20-1237 limits assumed): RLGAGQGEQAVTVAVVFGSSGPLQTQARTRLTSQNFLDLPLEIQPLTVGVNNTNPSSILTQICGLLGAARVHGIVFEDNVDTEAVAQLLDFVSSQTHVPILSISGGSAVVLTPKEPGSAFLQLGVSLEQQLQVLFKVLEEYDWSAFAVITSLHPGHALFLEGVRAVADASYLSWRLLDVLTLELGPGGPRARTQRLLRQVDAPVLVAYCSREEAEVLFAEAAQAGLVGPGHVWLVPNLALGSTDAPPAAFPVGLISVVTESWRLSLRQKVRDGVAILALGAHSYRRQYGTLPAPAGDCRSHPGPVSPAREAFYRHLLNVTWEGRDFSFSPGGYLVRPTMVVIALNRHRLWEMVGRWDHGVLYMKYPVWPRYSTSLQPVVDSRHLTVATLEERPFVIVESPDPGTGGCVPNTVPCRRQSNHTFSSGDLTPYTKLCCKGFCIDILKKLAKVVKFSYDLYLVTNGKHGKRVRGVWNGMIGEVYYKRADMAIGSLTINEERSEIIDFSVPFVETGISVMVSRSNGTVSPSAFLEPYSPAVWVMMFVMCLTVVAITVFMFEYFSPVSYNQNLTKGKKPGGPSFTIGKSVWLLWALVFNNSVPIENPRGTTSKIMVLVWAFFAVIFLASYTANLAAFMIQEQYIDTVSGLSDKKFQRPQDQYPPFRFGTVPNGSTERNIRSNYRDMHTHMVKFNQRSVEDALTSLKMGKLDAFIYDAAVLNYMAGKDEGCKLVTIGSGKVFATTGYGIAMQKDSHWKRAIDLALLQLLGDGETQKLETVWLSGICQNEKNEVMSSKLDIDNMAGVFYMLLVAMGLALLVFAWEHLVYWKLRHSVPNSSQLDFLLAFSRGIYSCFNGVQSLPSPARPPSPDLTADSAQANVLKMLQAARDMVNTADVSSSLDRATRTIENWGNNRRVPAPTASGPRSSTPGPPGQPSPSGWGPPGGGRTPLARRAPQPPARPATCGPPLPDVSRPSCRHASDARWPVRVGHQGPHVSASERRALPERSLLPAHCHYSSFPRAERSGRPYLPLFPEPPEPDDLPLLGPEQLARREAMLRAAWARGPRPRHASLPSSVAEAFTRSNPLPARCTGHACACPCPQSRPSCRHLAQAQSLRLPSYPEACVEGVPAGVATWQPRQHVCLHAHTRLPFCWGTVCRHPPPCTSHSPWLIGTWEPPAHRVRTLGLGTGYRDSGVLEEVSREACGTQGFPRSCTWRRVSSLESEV

Glutamate receptor 4 (Homo sapiens), sequence (P48058 whole entry): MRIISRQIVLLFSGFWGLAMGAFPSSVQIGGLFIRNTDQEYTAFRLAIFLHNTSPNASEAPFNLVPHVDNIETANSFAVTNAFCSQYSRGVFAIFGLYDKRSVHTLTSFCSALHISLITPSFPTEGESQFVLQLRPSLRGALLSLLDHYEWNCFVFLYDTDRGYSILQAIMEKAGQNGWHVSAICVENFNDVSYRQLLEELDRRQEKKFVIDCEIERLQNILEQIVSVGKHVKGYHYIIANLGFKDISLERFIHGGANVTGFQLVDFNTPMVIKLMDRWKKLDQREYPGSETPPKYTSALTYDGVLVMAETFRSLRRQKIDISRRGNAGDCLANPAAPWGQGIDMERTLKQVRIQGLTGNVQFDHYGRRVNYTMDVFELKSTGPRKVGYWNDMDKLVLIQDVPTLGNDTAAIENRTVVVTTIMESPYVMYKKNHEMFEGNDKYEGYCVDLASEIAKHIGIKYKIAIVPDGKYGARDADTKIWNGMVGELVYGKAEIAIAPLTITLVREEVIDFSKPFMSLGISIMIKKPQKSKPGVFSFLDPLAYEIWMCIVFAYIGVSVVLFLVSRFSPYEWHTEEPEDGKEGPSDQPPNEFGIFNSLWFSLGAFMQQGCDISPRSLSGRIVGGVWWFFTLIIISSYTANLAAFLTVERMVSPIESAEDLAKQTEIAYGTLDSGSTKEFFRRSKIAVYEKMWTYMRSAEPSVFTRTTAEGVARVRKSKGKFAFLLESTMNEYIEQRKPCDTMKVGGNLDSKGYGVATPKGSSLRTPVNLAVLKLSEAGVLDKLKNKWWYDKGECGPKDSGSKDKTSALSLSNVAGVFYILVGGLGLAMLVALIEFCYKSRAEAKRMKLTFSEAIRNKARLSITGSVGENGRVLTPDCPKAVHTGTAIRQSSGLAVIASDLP

## CN1CCc2c([N+](=O)[O-])cc3nc(O)c(O)nc3c2C1
[1]
  ED50: 0.44 mg/kg

## NS(=O)(=O)c1cccc2c1c([N+](=O)[O-])cc1nc(O)c(O)nc12
[2]
  ED50: 13.1 mg/kg
